{"source": "patent US10745361B2", "about": "“Piperazine derivatives having multimodal activity against pain” (ESTEVE PHARMACEUTICALS, S.A., priority 2013, dated 2020)", "target": "human σ1 receptor and human μ-opioid receptor", "assay": "Human σ1 receptor radioligand assay and human μ-opioid receptor radioligand assay (μ and σ1 dual binding)", "design": "key to μ and σ1 dual binding: +: Both Ki-μ and Ki-σ1>=500 nM; ++: One K, <500 nM while the other K, is >=500 nM; +++: Both Ki-μ and Ki-σ1<500 nM; ++++: Both Ki-μ and Ki-σ1<100 nM", "settings": "one class for both Ki: σ1 ([3H](+)-pentazocine, transfected HEK-293 membranes) and μ-opioid ([3H]-DAMGO, transfected CHO-K1 membranes)", "method": "Human σ1 Receptor Radioligand Assay\nTo investigate binding properties of σ1 receptor ligands to human σ1 receptor, transfected HEK-293 membranes and [^3H](+)-pentazocine (Perkin Elmer, NET-1056), as the radioligand, were used. The assay was carried out with 7 μg of membrane suspension, 5 nM of [^3H](+)-pentazocine in either absence or presence of either buffer or 10 μM Haloperidol for total and non-specific binding, respectively. Binding buffer contained Tris-HCl 50 mM at pH 8. Plates were incubated at 37° C. for 120 minutes. After the incubation period, the reaction mix was then transferred to MultiScreen HTS, FC plates (Millipore), filtered and plates were washed 3 times with ice-cold 10 mM Tris-HCL (pH7.4). Filters were dried and counted at approximately 40% efficiency in a MicroBeta scintillation counter (Perkin-Elmer) using EcoScint liquid scintillation cocktail\nHuman μ-Opioid Receptor Radioligand Assay\nTo investigate binding properties of p-opioid receptor ligands to human p-opioid receptor, transfected CHO-K1 cell membranes and [^3H]-DAMGO (Perkin Elmer, ES-542-C), as the radioligand, were used. The assay was carried out with 20 μg of membrane suspension, 1 nM of [^3H]-DAMGO in either absence or presence of either buffer or 10 μM Naloxone for total and non-specific binding, respectively. Binding buffer contained Tris-HCl 50 mM, MgCl2 5 mM at pH 7.4. Plates were incubated at 27° C. for 60 minutes. After the incubation period, the reaction mix was then transferred to MultiScreen HTS, FC plates (Millipore), filtered and plates were washed 3 times with ice-cold 10 mM Tris-HCL (pH 7.4). Filters were dried and counted at approximately 40% efficiency in a MicroBeta scintillation counter (Perkin-Elmer) using\nEcoScint liquid scintillation cocktail.\nThe following scale as been adopted for representing the binding to the σ1 receptor and the μ-opiod receptor expressed as Ki: • + Both Ki-μ and Ki-σ1>=500 nM • ++ One K, <500 nM while the other K, is >=500 nM • +++ Both Ki-μ and Ki-σ1<500 nM • ++++ Both Ki-μ and Ki-σ1<100 nM", "data": [{"molecule": "CS(=O)(=O)Nc1cccc(NC2CN(Cc3cn(-c4ccccc4)nn3)C2)c1", "note": "[Example 12, N-(3-(1-((1-phenyl-1H-1,2,3-triazol-4-yl)methyl)azetidin-3-ylamino)phenyl)methanesulfonamide]", "values": [{"measurement": "Ki", "result": "< 500", "unit": "nM"}]}, {"molecule": "CC(C)S(=O)(=O)Nc1cccc(N2CCN(Cc3cn(-c4ccc(F)cc4)nn3)CC2)c1", "note": "[Example 28, N-(3-(4-((1-(4-fluorophenyl)-1H-1,2,3-triazol-4-yl)methyl)piperazin-1-yl)phenyl)propane-2-sulfonamide]", "values": [{"measurement": "Ki", "result": "< 500", "unit": "nM"}]}, {"molecule": "CC(C)S(=O)(=O)Nc1cccc(N2CCN(Cc3cn(Cc4ccccc4)cn3)CC2)c1", "note": "[Example 40, N-(3-(4-((1-benzyl-1H-imidazol-4-yl)methyl)piperazin-1-yl)phenyl)propane-2-sulfonamide]", "values": [{"measurement": "Ki", "result": "< 500", "unit": "nM"}]}, {"molecule": "CC(C)S(=O)(=O)Nc1cccc(N2CCN(Cc3cn(-c4ccc(Cl)cn4)nn3)CC2)n1", "note": "[Example 58, N-(6-(4-((1-(5-chloropyridin-2-yl)-1H-1,2,3-triazol-4-yl)methyl)piperazin-1-yl)pyridin-2-yl)propane-2-sulfonamide]", "values": [{"measurement": "μ and σ1 dual binding", "result": "++"}]}, {"molecule": "CC(C)S(=O)(=O)Nc1cccc(N2CC3CN(Cc4cn(-c5ccccc5)nn4)CC3C2)n1", "note": "(stereo not drawn) [Example 53, N-(6-(5-((1-phenyl-1H-1,2,3-triazol-4-yl)methyl)hexahydropyrrolo[3,4-c]pyrrol-2(1H)-yl)pyridin-2-yl)propane-2-sulfonamide]", "values": [{"measurement": "Ki", "result": "< 500", "unit": "nM"}]}, {"molecule": "CC(C)S(=O)(=O)Nc1cccc(N2CCN(Cc3cn(-c4cncc(Cl)c4)nn3)CC2)n1", "note": "[Example 2, N-(6-(4-((1-(5-chloropyridin-3-yl)-1H-1,2,3-triazol-4-yl)methyl)piperazin-1-yl)pyridin-2-yl)propane-2-sulfonamide]", "values": [{"measurement": "μ and σ1 dual binding", "result": "++"}]}, {"molecule": "O=S(=O)(Nc1cccc(N2CCN(Cc3cn(-c4ccccc4)nn3)CC2)c1)C1CC1", "note": "[Example 20, N-(3-(4-((1-phenyl-1H-1,2,3-triazol-4-yl)methyl)piperazin-1-yl)phenyl)cyclopropanesulfonamide]", "values": [{"measurement": "Ki", "result": "< 100", "unit": "nM"}]}, {"molecule": "CS(=O)(=O)Nc1cccc(NC2CCN(Cc3cn(-c4ccccc4)nn3)C2)c1", "note": "(stereo not drawn) [Example 11, N-(3-(1-((1-phenyl-1H-1,2,3-triazol-4-yl)methyl)pyrrolidin-3-ylamino)phenyl)methanesulfonamide]", "values": [{"measurement": "Ki", "result": "< 500", "unit": "nM"}]}, {"molecule": "CC(C)S(=O)(=O)Nc1cccc(N2CCN(Cc3cnn(-c4ccccn4)c3)CC2)n1", "note": "[Example 47, N-(6-(4-((1-(pyridin-2-yl)-1H-pyrazol-4-yl)methyl)piperazin-1-yl)pyridin-2-yl)propane-2-sulfonamide]", "values": [{"measurement": "Ki", "result": "< 500", "unit": "nM"}]}, {"molecule": "O=S(=O)(Nc1cccc(N2CCN(Cc3cn(-c4ccccc4F)nn3)CC2)n1)C1CC1", "note": "[Example 44, N-(6-(4-((1-(2-fluorophenyl)-1H-1,2,3-triazol-4-yl)methyl)piperazin-1-yl)pyridin-2-yl)cyclopropanesulfonamide]", "values": [{"measurement": "Ki", "result": "< 500", "unit": "nM"}]}, {"molecule": "CS(=O)(=O)Nc1cccc(N2CCN(Cc3cn(-c4ccccc4)nn3)CC2)c1", "note": "[Example 4, N-(3-(4-((1-phenyl-1H-1,2,3-triazol-4-yl)methyl)piperazin-1-yl)phenyl)methanesulfonamide]", "values": [{"measurement": "Ki", "result": "< 500", "unit": "nM"}]}, {"molecule": "CC(C)S(=O)(=O)Nc1cccc(N2CCN(Cc3cn(-c4ccccn4)cn3)CC2)n1", "note": "[Example 62, N-(6-(4-((1-(pyridin-2-yl)-1H-imidazol-4-yl)methyl)piperazin-1-yl)pyridin-2-yl)propane-2-sulfonamide]", "values": [{"measurement": "Ki", "result": "< 500", "unit": "nM"}]}, {"molecule": "Cc1ccc(F)c(-n2cc(CN3CCN(c4cccc(NS(=O)(=O)C5CC5)n4)CC3)nn2)c1", "note": "[Example 66, N-(6-(4-((1-(2-fluoro-5-methylphenyl)-1H-1,2,3-triazol-4-yl)methyl)piperazin-1-yl)pyridin-2-yl)cyclopropanesulfonamide]", "values": [{"measurement": "μ and σ1 dual binding", "result": "++"}]}, {"molecule": "CN(c1cccc(NS(C)(=O)=O)c1)C1CN(Cc2cn(-c3ccccc3)nn2)C1", "note": "[Example 15, N-(3-(methyl(1-((1-phenyl-1H-1,2,3-triazol-4-yl)methyl)azetidin-3-yl)amino)phenyl)methanesulfonamide]", "values": [{"measurement": "Ki", "result": "< 500", "unit": "nM"}]}, {"molecule": "CN(c1cccc(NS(C)(=O)=O)c1)C1CCN(Cc2cn(-c3ccccc3)nn2)C1", "note": "(stereo not drawn) [Example 14, N-(3-(methyl(1-((1-phenyl-1H-1,2,3-triazol-4-yl)methyl)pyrrolidin-3-yl)amino)phenyl)methanesulfonamide]", "values": [{"measurement": "Ki", "result": "< 100", "unit": "nM"}]}, {"molecule": "CS(=O)(=O)Nc1cccc(N2CCN(Cc3cnn(-c4ccccc4)c3)CC2)c1", "note": "[Example 33, N-(3-(4-((1-phenyl-1H-pyrazol-4-yl)methyl)piperazin-1-yl)phenyl)methanesulfonamide]", "values": [{"measurement": "Ki", "result": "< 100", "unit": "nM"}]}, {"molecule": "CC(C)S(=O)(=O)Nc1cccc(N2CC3CN(Cc4cn(Cc5ccccc5)nn4)CC3C2)n1", "note": "(stereo not drawn) [Example 54, N-(6-(5-((1-benzyl-1H-1,2,3-triazol-4-yl)methyl)hexahydropyrrolo[3,4-c]pyrrol-2(1H)-yl)pyridin-2-yl)propane-2-sulfonamide]", "values": [{"measurement": "μ and σ1 dual binding", "result": "++"}]}, {"molecule": "Nc1cccc(N2CCN(Cc3cn(-c4ccccc4)nn3)CC2)c1", "note": "[Example 31, 3-(4-((1-phenyl-1H-1,2,3-triazol-4-yl)methyl)piperazin-1-yl)aniline]", "values": [{"measurement": "Ki", "result": "≥ 500", "unit": "nM"}]}]}
